Data as given in ChEMBL document CHEMBL5665443, “Enzyme Inhibitor Single Concentration assay results for EUbOPEN Chemogenomics Library” (2024).

Key:
Settings in all cases: Hit No
[1] = biological target: G/T mismatch-specific thymine DNA glycosylase (Homo sapiens) (UniProt Q13569);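 also: human TDG cleavage of quenched duplex DNA oligonucleotides coupled to APE1, strand release read as fluorescence at 594 nm, inhibition of TDG activity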
Description: Inhibition of TDG by quantifying inhibition of TDG-mediated cleavage and dissociation of quenched duplex DNA oligonucleotides, measured as fluorescence at 594 nm. To generate a functional strand incision and increase turn-over this assay is coupled to APE1.

[2] = biological target: T1, Single-strand selective monofunctional uracil DNA glycosylase (Homo sapiens) (UniProt Q53HV7);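 also: enzymatic SMUG1 assay coupled with APE1, reading fluorescence at 594 nm released when a quenched double-stranded DNA oligonucleotide substrate is cleaved and separated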
T1 sequence (whole entry): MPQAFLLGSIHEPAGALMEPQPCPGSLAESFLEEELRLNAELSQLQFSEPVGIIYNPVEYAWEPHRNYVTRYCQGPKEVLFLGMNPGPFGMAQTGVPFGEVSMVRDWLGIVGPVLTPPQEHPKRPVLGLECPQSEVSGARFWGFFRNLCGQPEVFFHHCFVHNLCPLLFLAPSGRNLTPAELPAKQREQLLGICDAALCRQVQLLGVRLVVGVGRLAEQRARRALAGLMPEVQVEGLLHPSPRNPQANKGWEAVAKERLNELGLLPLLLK
Description: Inhibition of SMUG1 by quantifying inhibition of SMUG1-mediated cleavage and dissociation of quenched duplex DNA oligonucleotides, measured as fluorescence at 594 nm. To generate a functional strand incision and increase turn-over this assay is coupled to APE1.

[3] = biological target: T2, Endonuclease 8-like 2 (Homo sapiens) (UniProt Q969S2);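 also: fluorescence at 594 nm reports NEIL2 cutting and release of a quenched double-stranded DNA oligo substrate, reduced signal read as inhibition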
T2 sequence (whole entry): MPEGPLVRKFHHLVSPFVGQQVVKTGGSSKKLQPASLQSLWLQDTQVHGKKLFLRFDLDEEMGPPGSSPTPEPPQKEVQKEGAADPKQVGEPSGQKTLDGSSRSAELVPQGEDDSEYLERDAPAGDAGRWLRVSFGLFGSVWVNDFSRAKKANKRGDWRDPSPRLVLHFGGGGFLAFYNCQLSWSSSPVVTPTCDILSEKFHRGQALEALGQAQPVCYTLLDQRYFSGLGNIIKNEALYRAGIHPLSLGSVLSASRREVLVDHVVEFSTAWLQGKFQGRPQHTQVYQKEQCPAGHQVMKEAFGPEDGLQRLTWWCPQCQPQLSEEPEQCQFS
Description: Inhibition of NEIL2 by quantifying inhibition of NEIL2-mediated cleavage and dissociation of quenched duplex DNA oligonucleotides, measured as fluorescence at 594 nm.

[4] = biological target: N-glycosylase/DNA lyase (Homo sapiens) (UniProt O15527);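 also: OGG1 cleavage of a quenched duplex DNA oligonucleotide, coupled to APE1 for strand incision, read as fluorescence at 594 nm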
Description: Inhibition of OGG1 by quantifying inhibition of OGG1-mediated cleavage and dissociation of quenched duplex DNA oligonucleotides, measured as fluorescence at 594 nm. To generate a functional strand incision and increase turn-over this assay is coupled to APE1.

[5] = biological target: Uracil-DNA glycosylase (Homo sapiens) (UniProt P13051);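 also: UNG excision on a quenched double-stranded DNA oligo probe, with APE1 added for strand incision and turnover, read as fluorescence at 594 nm as strands separate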
Description: Inhibition of UNG by quantifying inhibition of UNG-mediated cleavage and dissociation of quenched duplex DNA oligonucleotides, measured as fluorescence at 594 nm. To generate a functional strand incision and increase turn-over this assay is coupled to APE1.

[6] = biological target: Endonuclease 8-like 1 (Homo sapiens) (UniProt Q96FI4);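 also: fluorescence at 594 nm from quenched duplex DNA oligonucleotides released by NEIL1 cleavage and strand separation, reported as reduction of this enzyme activity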
Description: Inhibition of NEIL1 by quantifying inhibition of NEIL1-mediated cleavage and dissociation of quenched duplex DNA oligonucleotides, measured as fluorescence at 594 nm.

[7] = biological target: T3, Adenine DNA glycosylase (Homo sapiens) (UniProt Q9UIF7);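 also: human MUTYH activity read as 594 nm fluorescence from cleavage and release of a quenched DNA duplex, coupled with APE1 for strand incision, lower signal meaning inhibition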
T3 sequence (whole entry): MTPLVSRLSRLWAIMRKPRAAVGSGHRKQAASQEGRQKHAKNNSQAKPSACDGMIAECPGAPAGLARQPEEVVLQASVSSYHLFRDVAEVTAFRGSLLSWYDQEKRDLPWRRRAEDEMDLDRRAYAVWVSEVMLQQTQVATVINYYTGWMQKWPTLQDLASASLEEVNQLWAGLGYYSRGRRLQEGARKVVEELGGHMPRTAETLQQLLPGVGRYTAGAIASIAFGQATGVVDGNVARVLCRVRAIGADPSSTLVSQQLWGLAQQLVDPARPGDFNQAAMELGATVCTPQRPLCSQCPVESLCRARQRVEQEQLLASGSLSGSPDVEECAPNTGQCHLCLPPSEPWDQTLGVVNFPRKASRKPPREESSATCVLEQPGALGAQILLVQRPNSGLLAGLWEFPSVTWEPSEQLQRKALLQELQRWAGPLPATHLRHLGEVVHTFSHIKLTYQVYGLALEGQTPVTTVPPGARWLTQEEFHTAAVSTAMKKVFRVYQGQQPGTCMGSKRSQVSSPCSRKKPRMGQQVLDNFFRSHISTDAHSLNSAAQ
Description: Inhibition of MUTYH by quantifying inhibition of MUTYH-mediated cleavage and dissociation of quenched duplex DNA oligonucleotides, measured as fluorescence at 594 nm. To generate a functional strand incision and increase turn-over this assay is coupled to APE1.

[8] = biological target: Methyl-CpG-binding domain protein 4 (Homo sapiens) (UniProt O95243);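 also: MBD4 activity read as fluorescence at 594 nm from cleavage and release of a quenched duplex DNA oligonucleotide, with APE1 coupled to incise the strand and raise turnover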
Methyl-CpG-binding domain protein 4 (Homo sapiens), sequence (O95243 whole entry, the tested form may be a part): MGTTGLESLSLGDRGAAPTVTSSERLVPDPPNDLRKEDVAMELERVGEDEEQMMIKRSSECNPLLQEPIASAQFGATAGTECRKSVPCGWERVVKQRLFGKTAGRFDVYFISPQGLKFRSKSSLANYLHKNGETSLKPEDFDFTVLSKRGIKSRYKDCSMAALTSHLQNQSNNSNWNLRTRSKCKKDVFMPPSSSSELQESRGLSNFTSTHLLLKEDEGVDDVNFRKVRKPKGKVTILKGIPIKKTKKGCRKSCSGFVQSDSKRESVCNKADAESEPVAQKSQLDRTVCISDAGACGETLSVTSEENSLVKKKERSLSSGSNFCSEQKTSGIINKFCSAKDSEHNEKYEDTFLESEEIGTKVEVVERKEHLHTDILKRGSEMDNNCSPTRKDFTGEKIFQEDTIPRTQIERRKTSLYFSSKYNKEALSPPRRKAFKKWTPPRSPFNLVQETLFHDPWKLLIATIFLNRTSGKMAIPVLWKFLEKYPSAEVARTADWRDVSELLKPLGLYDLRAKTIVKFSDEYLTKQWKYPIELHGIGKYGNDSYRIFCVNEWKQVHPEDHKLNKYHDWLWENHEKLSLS
Description: Inhibition of MBD4 by quantifying inhibition of MBD4-mediated cleavage and dissociation of quenched duplex DNA oligonucleotides, measured as fluorescence at 594 nm. To generate a functional strand incision and increase turn-over this assay is coupled to APE1.

G/T mismatch-specific thymine DNA glycosylase (Homo sapiens), sequence (Q13569 whole entry): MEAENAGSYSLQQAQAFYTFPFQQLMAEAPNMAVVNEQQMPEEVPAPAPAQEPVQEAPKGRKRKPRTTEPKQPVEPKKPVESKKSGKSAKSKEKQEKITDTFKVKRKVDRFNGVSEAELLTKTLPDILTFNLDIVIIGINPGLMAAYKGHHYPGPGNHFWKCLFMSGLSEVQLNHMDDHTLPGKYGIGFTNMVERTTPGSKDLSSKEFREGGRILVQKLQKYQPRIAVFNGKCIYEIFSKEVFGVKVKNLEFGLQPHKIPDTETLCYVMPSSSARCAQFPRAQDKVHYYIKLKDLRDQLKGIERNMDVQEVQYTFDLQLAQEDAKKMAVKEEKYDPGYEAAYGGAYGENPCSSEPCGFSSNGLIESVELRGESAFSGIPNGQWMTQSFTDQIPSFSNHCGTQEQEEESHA
Endonuclease 8-like 1 (Homo sapiens), sequence (Q96FI4 whole entry): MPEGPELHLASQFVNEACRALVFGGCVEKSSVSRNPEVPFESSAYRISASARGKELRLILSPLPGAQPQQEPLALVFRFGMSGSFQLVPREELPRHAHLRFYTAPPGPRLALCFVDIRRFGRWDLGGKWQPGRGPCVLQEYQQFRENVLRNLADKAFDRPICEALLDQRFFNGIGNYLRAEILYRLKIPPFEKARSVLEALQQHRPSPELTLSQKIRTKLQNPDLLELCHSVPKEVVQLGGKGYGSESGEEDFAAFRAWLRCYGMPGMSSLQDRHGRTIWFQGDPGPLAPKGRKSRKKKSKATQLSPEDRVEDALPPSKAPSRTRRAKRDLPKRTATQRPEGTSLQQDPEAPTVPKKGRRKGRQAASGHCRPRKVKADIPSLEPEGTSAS
N-glycosylase/DNA lyase (Homo sapiens), sequence (O15527 whole entry): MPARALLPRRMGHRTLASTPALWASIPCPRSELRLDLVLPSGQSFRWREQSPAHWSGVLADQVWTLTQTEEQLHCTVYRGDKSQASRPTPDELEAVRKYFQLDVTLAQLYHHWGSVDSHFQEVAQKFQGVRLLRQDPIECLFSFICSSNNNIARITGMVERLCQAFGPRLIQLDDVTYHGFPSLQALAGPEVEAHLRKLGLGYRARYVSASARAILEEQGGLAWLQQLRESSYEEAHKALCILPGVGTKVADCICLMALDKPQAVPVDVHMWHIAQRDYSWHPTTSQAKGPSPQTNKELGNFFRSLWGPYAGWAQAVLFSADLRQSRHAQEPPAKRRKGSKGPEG
Uracil-DNA glycosylase (Homo sapiens), sequence (P13051 whole entry): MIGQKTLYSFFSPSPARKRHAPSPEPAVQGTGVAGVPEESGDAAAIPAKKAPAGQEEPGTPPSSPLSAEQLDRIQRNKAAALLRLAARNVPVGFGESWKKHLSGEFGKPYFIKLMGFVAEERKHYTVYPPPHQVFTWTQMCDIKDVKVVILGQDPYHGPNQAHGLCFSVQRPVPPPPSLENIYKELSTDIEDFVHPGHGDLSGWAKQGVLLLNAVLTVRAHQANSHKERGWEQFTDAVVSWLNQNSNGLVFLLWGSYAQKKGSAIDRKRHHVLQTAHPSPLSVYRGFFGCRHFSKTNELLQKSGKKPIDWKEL

Compound | inhibition ([1]; Compound Concentration 10.0 uM) [%] | inhibition ([2]; Compound Concentration 10.0 uM) [%] | inhibition ([3]; Compound Concentration 10.0 uM) [%] | inhibition ([4]; Compound Concentration 10.0 uM) [%] | inhibition ([5]; Compound Concentration 10.0 uM) [%] | inhibition ([6]; Compound Concentration 10.0 uM) [%] | inhibition ([7]; Compound Concentration 10.0 uM) [%] | inhibition ([8]; Compound Concentration 10.0 uM) [%] | inhibition ([1]; Compound Concentration 1.0 uM) [%] | inhibition ([2]; Compound Concentration 1.0 uM) [%] | inhibition ([3]; Compound Concentration 1.0 uM) [%] | inhibition ([4]; Compound Concentration 1.0 uM) [%] | inhibition ([5]; Compound Concentration 1.0 uM) [%] | inhibition ([6]; Compound Concentration 1.0 uM) [%] | inhibition ([7]; Compound Concentration 1.0 uM) [%] | inhibition ([8]; Compound Concentration 1.0 uM) [%]
O=C(N[C@H]1CCCCC/C=C\C2C[C@@]2(C(=O)O)NC(=O)[C@@H]2C[C@@H](Oc3ccncc3)CN2C1=O)OC1CCCC1 (stereo partly specified) | 61.5 | 20 | -0.999 | 25.2 | 4.34 | 2.74 | 1.97 | 61.8 |  |  |  |  |  |  |  | 
CNC(=O)Nc1ccc2c(c1)[C@@]1(CC2)OC(=O)N(CC(=O)N(Cc2ccc(F)cc2)[C@@H](C)C(F)(F)F)C1=O |  |  |  |  |  |  |  |  | 98.8 | 22.4 | -2.53 | -0.951 | 4.4 | -6.35 | 0.0592 | 67.4
Cc1cc(-c2ccnc(Nc3cnn(C)c3)n2)ccc1CNC(=O)N1CC(OC(C)C)C1 | 44.6 | 28.1 | -6.23 | 9.56 | 4.16 | -3.03 | 22.5 | 12.6 |  |  |  |  |  |  |  | 
CN(C)[C@H]1CCN(c2cc(-c3ccccc3)nc3ccnn23)C1 | 49 | 13.5 | 9.71 | 10.6 | 9.72 | 6.98 | 15.6 | 77.8 |  |  |  |  |  |  |  | 
O=C(Cc1ccccc1)Nc1nnc(N2CC[C@@H]3[C@H]2CN3c2cccnn2)s1 |  |  |  |  |  |  |  |  | 43.7 | 9.42 | -8.65 | 3.62 | 9.87 | 0.316 | 7.76 | 66
OCCOCCN1CCN(C(c2ccccc2)c2ccc(Cl)cc2)CC1 (stereo unspecified) | 3.31 | 2.34 | -2.98 | -2.03 | -3.83 | 4.39 | -3.56 | 1.54 |  |  |  |  |  |  |  | 
CC(=O)Nc1nc(C)c(S(=O)(=O)Nc2ccc(C(O)(C(F)(F)F)C(F)(F)F)cc2)s1 | 98.2 | 23 | 2.83 | 9.77 | 5.29 | 1.83 | 13.4 | 60.1 |  |  |  |  |  |  |  | 
NC1(c2ccc(-c3nc4ccn5c(=O)[nH]nc5c4cc3-c3ccccc3)cc2)CCC1 | 71.2 | 29.1 | -9.46 | 10.8 | 17.3 | 17.6 | 56.1 | 37.9 |  |  |  |  |  |  |  | 
Nc1nc(NCc2ccccc2)nc(-c2ccccc2CO)n1 | 52 | -2.01 | 5.12 | 4.21 | 2.12 | -7.11 | -3 | 61.2 |  |  |  |  |  |  |  | 
CC(C)c1c(CN(C)C(C)Cc2ccccc2)n(C)n(-c2ccccc2)c1=O (stereo unspecified) | 100 | 23.9 | -4.57 | 21.4 | 1.7 | 0.921 | 11 | 64.9 |  |  |  |  |  |  |  | 
COc1cc2ncn(-c3cc(OCc4ccccc4C(F)(F)F)c(C(N)=O)s3)c2cc1OC |  |  |  |  |  |  |  |  | 35.1 | 10.2 | -8.65 | 0.727 | 3.27 | -7 | -6.25 | 6.17
CC1CCN(c2ccnc(NCc3cn(C)cn3)n2)CC1 | 50.4 | 15.3 | 3.08 | 19.9 | 5.91 | 1.98 | 19.8 | 67.6 |  |  |  |  |  |  |  | 
